{"source": "patent EP0165970B1", "about": "“HAIR GROWTH MODIFICATION” (KASZYNSKI, Edwin G., priority 1983, dated 1985)", "key": {"flank organ hair": {"system": "flank organ hair", "assay": "Flank organ hair mass (hair re-growth) after topical application", "assay_type": "in vivo", "conditions": "adult intact male hamsters", "text": "The absence of antagonism of synthemic androgen activity in the practice of our invention can be shown by the topical application of suitable compositions to one of the two flank organs of mature male hamsters. Dose-related decreases in androgen-dependent flank organ hair growth are obtained on the treated side but no statistically significant change occurs in the contralateral, vehicle-treated side. Similar studies have been conducted using female hamsters in which hair growth on the flank organs has been stimulated by the subcutaneous administration of a suitable androgen.\nSummarized below are the results of several experiments comparing the efficacy of several compositions in reducing the flank organ hair mass in adult intact male hamsters. In each case, hamsters were treated for 15 days (Monday-Friday) during a 21-day interval. Flank organ hairs were depilated on the first day of treatment and redepilated on the sixth day of treatment. The mass of flank organ hair represents the re-growth during the final 14 days of the 21-day interval. The results for percent inhibition shown below are based upon comparisons between the hair mass values of hairs hervested from treated flank organs of experimental animals and those obtained from vehicle-treated control animals."}, "[1]": {"system": "ornithine decarboxylase (ODC)", "assay": "Flank organ ornithine decarboxylase (ODC) activity, in vivo screen for topical antiandrogens", "design": "species or system hamsters", "conditions": "for ODC activity in flank organs: applied topically, single agents", "text": "A novel method for screening topical antiandrogens has been developed in which the fluctuations in flank organ activity of the enzyme ornithine decarboxylase (ODC) in response to androgens and antiandrogens is exploited to provide a rapid, in vivo screen for antiandrogens, based on a biochemical parameter specifically related to androgenic stimulation of pilosebaceous target tissues.\nA further series of investigations on the androgenic regulation of ODC activity in hamster flank organs has been conducted to test topical antiandrogenic formulations consisting of combination regimens."}, "[2]": {"conditions": "Experiment III, 500 micrograms per square centimeter"}, "[3]": {"conditions": "unilateral topical application, flank organs of intact (uncastrated) male hamsters"}, "[4]": {"conditions": "topical, androgen stimulated female hamsters"}}, "data": [{"compound": "C[C@]12CC[C@H]3[C@@H](CCC4=CC(=O)CC[C@@]43C)[C@@H]1CC[C@@H]2C(=O)O", "note": "[4-androstene-3-one-17B- Carboxylic acid]", "values": [{"measurement": "% Inhibition", "setting": "flank organ hair; Experiment II, 400 micrograms per square centimeter", "value": 29, "unit": "%"}]}, {"compound": "CC(=O)O[C@]1(C(C)=O)CC[C@H]2[C@@H]3C=C(Cl)C4=CC(=O)CC[C@]4(C)[C@H]3CC[C@@]21C", "note": "[Chlormadione acetate]", "values": [{"measurement": "% Inhibition", "setting": "flank organ hair; [2]", "value": 45, "unit": "%"}, {"measurement": "ODC activity in flank organs", "setting": "[1]", "value": "inhibit ODC activity"}]}, {"compound": "C=CC[C@]1(O)CC[C@H]2[C@@H]3CCC4=CC(=O)CC[C@]4(C)[C@H]3CC[C@@]21C", "note": "[17-α-allyltestosterone]", "values": [{"measurement": "% Inhibition", "setting": "flank organ hair; Experiment IV, 5 micrograms per square centimeter", "value": 0, "unit": "%"}, {"measurement": "% Inhibition", "setting": "flank organ hair; Experiment IV, 20 micrograms per square centimeter", "value": 29, "unit": "%"}, {"measurement": "% Inhibition", "setting": "flank organ hair; Experiment IV, 50 micrograms per square centimeter", "value": 50, "unit": "%"}, {"measurement": "% Inhibition", "setting": "flank organ hair; Experiment IV, 100 micrograms per square centimeter", "value": 50, "unit": "%"}, {"measurement": "ODC activity in flank organs", "setting": "[1]", "value": "inhibit ODC activity"}, {"measurement": "ODC activity", "setting": "[1]; [3]", "value": "selectively decreased ODC activity on treated but not untreated flank organs"}]}, {"compound": "CCC[C@]1(O)CC[C@H]2[C@@H]3CCC4=CC(=O)CC[C@]4(C)[C@H]3CC[C@@]21C", "note": "[17-α-Propyltestosterone]", "values": [{"measurement": "% Inhibition", "setting": "flank organ hair; Experiment I, 6 micrograms per square centimeter", "value": 26, "unit": "%"}, {"measurement": "ODC activity in flank organs", "setting": "[1]", "value": "inhibit ODC activity"}, {"measurement": "ODC activity", "setting": "[1]; [3]", "value": "selectively decreased ODC activity on treated but not untreated flank organs"}]}, {"compound": "CC(=O)O[C@]1(C(C)=O)CC[C@H]2[C@@H]3C=C(Cl)C4=CC(=O)[C@@H]5C[C@@H]5[C@]4(C)[C@H]3CC[C@@]21C", "note": "[Cyproterone acetate]", "values": [{"measurement": "% Inhibition", "setting": "flank organ hair; Experiment I, 500 micrograms per square centimeter", "value": 26, "unit": "%"}, {"measurement": "% Inhibition", "setting": "flank organ hair; Experiment II, 50 micrograms per square centimeter", "value": 23, "unit": "%"}, {"measurement": "% Inhibition", "setting": "flank organ hair; Experiment II, 500 micrograms per square centimeter", "value": 38, "unit": "%"}, {"measurement": "ODC activity in flank organs", "setting": "[1]", "value": "inhibit ODC activity"}, {"measurement": "ODC activity", "setting": "[1]; [4]", "value": "inhibited ODC activity"}]}, {"compound": "CC(=O)S[C@@H]1CC2=CC(=O)CC[C@]2(C)[C@H]2CC[C@@]3(C)[C@@H](CC[C@@]34CCC(=O)O4)[C@H]12", "note": "[Spironolactone]", "values": [{"measurement": "% Inhibition", "setting": "flank organ hair; [2]", "value": 41, "unit": "%"}]}, {"compound": "CC(=O)[C@H]1CC[C@H]2[C@@H]3CCC4=CC(=O)CC[C@]4(C)[C@H]3CC[C@]12C", "note": "[Progesterone]", "values": [{"measurement": "% Inhibition", "setting": "flank organ hair; Experiment I, 15 days treatment in 21-day interval, 1000 micrograms per square centimeter", "value": 30, "unit": "%"}, {"measurement": "% Inhibition", "setting": "flank organ hair; Experiment III, 1000 micrograms per square centimeter", "value": 57, "unit": "%"}, {"measurement": "% Inhibition", "setting": "flank organ hair; Experiment IV, 1000 micrograms per square centimeter", "value": 48, "unit": "%"}, {"measurement": "ODC activity in flank organs", "setting": "[1]", "value": "inhibit ODC activity"}, {"measurement": "ODC activity", "setting": "[1]; [4]", "value": "inhibited ODC activity"}]}]}
